Experimental findings from the supplement of paper PMC10307832 are described below.

Common to all, as to assay: relative viability (nuclei count vs DMSO), 5 days (fraction); higher = more cells survive
Compound in the test “Metformin + Pictilisib”: CN(C)C(=N)NC(=N)N [Metformin] + CS(=O)(=O)N1CCN(Cc2cc3nc(-c4cccc5[nH]ncc45)nc(N4CCOCC4)c3s2)CC1 [Pictilisib] (partner 1 µM)
The gist of the method: (§1)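 Relative viability equals treated-well nuclei counts divided by vehicle-well nuclei counts. Counts came from 4× images of lung cancer cell lines grown in 1536-well plates for 5 days after pin-tool dosing on the day after seeding. Dosing used one drug alone or a fixed anchor-drug dose plus five library-drug doses (not always all listed) in √10 steps, and values are medians of duplicate plates.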

Compound in the test “Metformin + OSI-027”: CN(C)C(=N)NC(=N)N [Metformin] + COc1cccc2cc(-c3nc([C@H]4CC[C@H](C(=O)O)CC4)n4ncnc(N)c34)[nH]c12 [OSI-027] (partner 0.5 µM)
The gist of the method:
as §1

Compound in the test “Metformin + Tozasertib”: CN(C)C(=N)NC(=N)N [Metformin] + Cc1cc(Nc2cc(N3CCN(C)CC3)nc(Sc3ccc(NC(=O)C4CC4)cc3)n2)n[nH]1 [Tozasertib] (partner 0.1 µM)
The gist of the method: as §1

Compound in the test “Metformin + Linsitinib”: CN(C)C(=N)NC(=N)N [Metformin] + C[C@]1(O)C[C@@H](c2nc(-c3ccc4ccc(-c5ccccc5)nc4c3)c3c(N)nccn32)C1 [Linsitinib] (partner 1 µM)
The gist of the method: as §1

NCI-H1915: the relative viability in the test with Metformin + Pictilisib (first compound 31.62 µM) worked out at 1.08; with Metformin + Pictilisib (first compound 100 µM), 0.95; with Metformin + Pictilisib (first compound 316.23 µM), 0.919; with Metformin + Pictilisib (first compound 1000 µM), 0.933; with Metformin + OSI-027 (first compound 31.62 µM), 0.666; in the test with Metformin + OSI-027 (first compound 100 µM) it was 0.651. Also, the relative viability in the test with Metformin + OSI-027 (first compound 316.23 µM) was found to be 0.56; with Metformin + OSI-027 (first compound 1000 µM), 0.665; with Metformin + Tozasertib (first compound 31.62 µM) it was 0.452; in the test with Metformin + Tozasertib (first compound 100 µM), 0.466; with Metformin + Tozasertib (first compound 316.23 µM), 0.416; with Metformin + Tozasertib (first compound 1000 µM), 0.489. For the same cell line, the relative viability with Metformin + Linsitinib (first compound 31.62 µM) was 1.22; with Metformin + Linsitinib (first compound 100 µM), 1.15; in the test with Metformin + Linsitinib (first compound 316.23 µM), 1.14; in the test with Metformin + Linsitinib (first compound 1000 µM) it was 1.11.
For the cell line BEN, the relative viability in the test with Metformin + Pictilisib (first compound 10 µM) was 0.831; with Metformin + Pictilisib (first compound 31.62 µM), 0.754; in the test with Metformin + Pictilisib (first compound 100 µM), 0.626; in the test with Metformin + Pictilisib (first compound 316.23 µM) it was 0.625; in the test with Metformin + Pictilisib (first compound 1000 µM), 0.769; in the test with Metformin + OSI-027 (first compound 10 µM) it was 0.271. In addition, the relative viability worked out at 0.275 with Metformin + OSI-027 (first compound 31.62 µM); 0.3 with Metformin + OSI-027 (first compound 100 µM); 0.314 in the test with Metformin + OSI-027 (first compound 316.23 µM); 0.263 with Metformin + OSI-027 (first compound 1000 µM); 0.476 with Metformin + Tozasertib (first compound 10 µM); 0.494 with Metformin + Tozasertib (first compound 31.62 µM). Besides, the relative viability with Metformin + Tozasertib (first compound 100 µM) stood at 0.439; in the test with Metformin + Tozasertib (first compound 316.23 µM), 0.516; with Metformin + Tozasertib (first compound 1000 µM), 0.395; with Metformin + Linsitinib (first compound 10 µM), 1.21; with Metformin + Linsitinib (first compound 31.62 µM) it was 1.27; with Metformin + Linsitinib (first compound 100 µM) it was 1.3. Besides, the relative viability with Metformin + Linsitinib (first compound 316.23 µM) was 1.15; with Metformin + Linsitinib (first compound 1000 µM) it was 1.29.
Consider NCI-H1355, for which the relative viability was 0.503 with Metformin + Pictilisib (first compound 10 µM); 0.439 with Metformin + Pictilisib (first compound 31.62 µM); 0.438 with Metformin + Pictilisib (first compound 100 µM); 0.435 with Metformin + Pictilisib (first compound 316.23 µM); 0.504 with Metformin + Pictilisib (first compound 1000 µM); 0.434 with Metformin + OSI-027 (first compound 10 µM). Moreover, the relative viability came to 0.373 in the test with Metformin + OSI-027 (first compound 31.62 µM); 0.396 with Metformin + OSI-027 (first compound 100 µM); 0.416 with Metformin + OSI-027 (first compound 316.23 µM); 0.406 in the test with Metformin + OSI-027 (first compound 1000 µM); 0.613 in the test with Metformin + Tozasertib (first compound 10 µM); 0.654 with Metformin + Tozasertib (first compound 31.62 µM). Further, the relative viability in the test with Metformin + Tozasertib (first compound 100 µM) was found to be 0.684; with Metformin + Tozasertib (first compound 316.23 µM) it was 0.504; in the test with Metformin + Tozasertib (first compound 1000 µM), 0.757; in the test with Metformin + Linsitinib (first compound 10 µM), 0.782; with Metformin + Linsitinib (first compound 31.62 µM) it was 0.783; with Metformin + Linsitinib (first compound 100 µM) it was 0.756. Moreover, the relative viability with Metformin + Linsitinib (first compound 316.23 µM) is 0.731; in the test with Metformin + Linsitinib (first compound 1000 µM), 0.854.
As to NCI-H1975, the relative viability in the test with Metformin + Pictilisib (first compound 10 µM) worked out at 0.285; with Metformin + Pictilisib (first compound 31.62 µM), 0.327; with Metformin + Pictilisib (first compound 100 µM) it was 0.306; with Metformin + Pictilisib (first compound 316.23 µM) it was 0.314; with Metformin + Pictilisib (first compound 1000 µM) it was 0.321; with Metformin + OSI-027 (first compound 10 µM) it was 0.96. Moreover, the relative viability in the test with Metformin + OSI-027 (first compound 31.62 µM) turned out to be 1.08; with Metformin + OSI-027 (first compound 100 µM), 0.748; with Metformin + OSI-027 (first compound 316.23 µM), 0.891; in the test with Metformin + OSI-027 (first compound 1000 µM) it was 0.949; in the test with Metformin + Tozasertib (first compound 10 µM) it was 0.888; with Metformin + Tozasertib (first compound 31.62 µM), 0.905. The relative viability with Metformin + Tozasertib (first compound 100 µM) came to 0.872; with Metformin + Tozasertib (first compound 316.23 µM), 0.78; with Metformin + Tozasertib (first compound 1000 µM), 1.08; with Metformin + Linsitinib (first compound 10 µM) it was 1.09; with Metformin + Linsitinib (first compound 31.62 µM), 1.26; with Metformin + Linsitinib (first compound 100 µM) it was 1.07. Further, the figures for the relative viability in the test with Metformin + Linsitinib (first compound 316.23 µM) and in the test with Metformin + Linsitinib (first compound 1000 µM) were 1.18 and 1.31, respectively.
Consider HCC-44, for which the relative viability worked out at 0.682 in the test with Metformin + Pictilisib (first compound 10 µM); 0.771 in the test with Metformin + Pictilisib (first compound 31.62 µM); 0.734 with Metformin + Pictilisib (first compound 100 µM); 0.63 with Metformin + Pictilisib (first compound 316.23 µM); 0.7 in the test with Metformin + Pictilisib (first compound 1000 µM); 1.14 with Metformin + OSI-027 (first compound 10 µM). The relative viability came out at 0.921 with Metformin + OSI-027 (first compound 31.62 µM); 0.696 with Metformin + OSI-027 (first compound 100 µM); 0.632 with Metformin + OSI-027 (first compound 316.23 µM); 0.491 with Metformin + OSI-027 (first compound 1000 µM); 0.971 in the test with Metformin + Tozasertib (first compound 10 µM); 0.931 with Metformin + Tozasertib (first compound 31.62 µM). Besides, the relative viability with Metformin + Tozasertib (first compound 100 µM) is 1.06; in the test with Metformin + Tozasertib (first compound 316.23 µM), 0.761; with Metformin + Tozasertib (first compound 1000 µM), 0.757; with Metformin + Linsitinib (first compound 10 µM) it was 0.712; with Metformin + Linsitinib (first compound 31.62 µM) it was 0.679; with Metformin + Linsitinib (first compound 100 µM), 0.695. Also, the relative viability with Metformin + Linsitinib (first compound 316.23 µM) came to 0.597; in the test with Metformin + Linsitinib (first compound 1000 µM), 0.654.
As for NCI-H2087, the relative viability with Metformin + Pictilisib (first compound 10 µM) was 0.909; in the test with Metformin + Pictilisib (first compound 31.62 µM), 1.01; in the test with Metformin + Pictilisib (first compound 100 µM) it was 0.772; in the test with Metformin + Pictilisib (first compound 316.23 µM), 0.782; in the test with Metformin + Pictilisib (first compound 1000 µM) it was 0.957; with Metformin + OSI-027 (first compound 31.62 µM), 0.753. In addition, the relative viability was 0.73 with Metformin + OSI-027 (first compound 100 µM); 0.536 with Metformin + OSI-027 (first compound 316.23 µM); 0.482 in the test with Metformin + OSI-027 (first compound 1000 µM); 0.281 with Metformin + Tozasertib (first compound 31.62 µM); 0.246 with Metformin + Tozasertib (first compound 100 µM); 0.253 with Metformin + Tozasertib (first compound 316.23 µM). Further, the relative viability was found to be 0.245 in the test with Metformin + Tozasertib (first compound 1000 µM); 0.609 with Metformin + Linsitinib (first compound 10 µM); 0.908 with Metformin + Linsitinib (first compound 31.62 µM); 0.805 with Metformin + Linsitinib (first compound 100 µM); 0.712 with Metformin + Linsitinib (first compound 316.23 µM); 0.782 with Metformin + Linsitinib (first compound 1000 µM).
